Laboratory results: US11786570B2, “Dermatological product” (SYMRISE AG, priority 2018, dated 2023)
Entries after “also recorded” stand apart in the source; their conditions may differ. Marks after values point to notes of the source that are not given here.

How the values were obtained:
[1] = system: human sebaceous glands; experiment: Total lipid (sebum) content of micro-dissected ex vivo human sebaceous glands in organ culture, lipids normalized on proteins; format: cell-based; details: for Reduction of lipids at day 6 versus untreated; Total lipid reduction: Example 4; for Reduction of lipids at day 6 versus untreated; Lipid reduction: Example 8; for Effect on total lipid / sebum content of sebaceous glands, in words: day 6
Experimental: Organ culture of human sebaceous glands micro-dissected from human skin explants was performed to evaluate the modulatory activity of Tetraselmis suecica extract prepared according to the description given in Example 1 on the sebum level. The extract is employed in the dried form.
After removal of the epidermis of the full thickness skin sample, the sebaceous glands were carefully removed using micro-scissors and scalpel. The micro-dissected sebaceous glands were then pooled in groups of 8 and cultured up to day 6 in a 24 well plate immersed in 500 μl of modified Williams'E medium. After 24 hours of acclimation the culture medium was changed and substituted with the medium containing the extract to be tested. The medium was renewed at day 3 and 5 of culture. At day 6 the glands were collected and used for the quantification of lipids and proteins.
To do so, each sebaceous glands group was homogenized in 100 μl of isopropyl alcohol to extract lipids and let the proteins undissolved. After centrifugation the supernatant containing the extracted sebum was collected and analyzed. The remaining pellet was dried using a vacuum dry evaporator and then minced in presence of 50 μl of protein lysis buffer. After an appropriate incubation time, this extractive mixture was centrifuged, and the supernatant was collected and analyzed. The lipids dissolved in isopropyl alcohol and the proteins dissolved in the lysis buffer were quantified by infrared spectroscopy using a Direct Detect IR Spectrometer (Millipore). The total lipid amount was obtained by normalizing the quantified lipids upon the quantified proteins (i.e. mg of lipids/mg of proteins). The amounts of normalized lipids, i.e. the sebum produced by each group of sebaceous glands, obtained from the treated groups was compared to that of the untreated control group and the modulatory activity was calculated in percentage. As positive control, a 5 μM Capsaicin treatment was included in the experimental design. Capsaicin is an active component of chili peppers suitable to inhibit sebogenesis [T6th et al., J. Invest. Derm. (2009), 129: 329-339]. For statistical analysis, differences among groups were evaluated by one-way anova with permutation test followed by Dunnett's permutation test.
To evaluate donor responsiveness and interindividual variability the extract was tested on sebaceous glands obtained from skin samples of three different donors.
The Organ culture of human sebaceous glands micro-dissected from human skin explants was performed to evaluate the modulatory activity of mannitol on the sebum level.
After removal of the epidermis of the full thickness skin sample, the sebaceous glands were carefully removed using micro-scissors and scalpel. The micro-dissected sebaceous glands were then pooled in groups of 8 and cultured up to day 6 in a 24 well plate immersed in 500 μl of modified Williams'E medium. After 24 hours of acclimation the culture medium was changed and substituted with the medium containing the sample to be tested. The medium was renewed at day 3 and 5 of culture. At day 6 the glands were collected and used for the quantification of lipids and proteins.
To do so, each sebaceous glands group was homogenized in 100 μl of isopropyl alcohol to extract lipids and let the proteins undissolved. After centrifugation the supernatant containing the extracted sebum was collected and analyzed. The remaining pellet was dried using a vacuum dry evaporator and then minced in presence of 50 μl of protein lysis buffer. After an appropriate incubation time, this extractive mixture was centrifuged, and the supernatant was collected and analyzed. The lipids dissolved in isopropyl alcohol and the proteins dissolved in the lysis buffer were quantified by infrared spectroscopy using a Direct Detect IR Spectrometer (Millipore). The total lipid amount was obtained by normalizing the quantified lipids upon the quantified proteins (i.e. mg of lipids/mg of proteins). […]

[2] = system: human sebaceous glands; experiment: Resazurin viability test of micro-dissected human sebaceous glands, day 6 versus day 1; format: cell-based
Experimental: To better understand the response to the extract, a viability test was performed in parallel at day 1 and day 6 of organ culture. Resazurin was added to the wells (1:11) and let incubate for 2 hours. At the end of the incubation an aliquot of the medium was read with a fluorometer (excitation: 560 nm, emission: 590 nm). The medium was then replaced with normal medium for 2 hours in order to eliminate residual resazurin. After this the medium was replaced again with medium containing the test samples. The viability in each well was measured as the difference in percentage between day 6 and day 1.

[3] = system: CLDN7 [Claudin 7]; experiment: Gene expression by RT-qPCR in nHEK keratinocytes; format: cell-based, human
Experimental: Neonatale humane epidermal keratinocytes (nHEK) were cultivated in EpiLife medium (Gibco) including HKGS-Kit (Gibco) at 5% CO2 at 37° C. according to the supplier instructions. […] Genomic target expression levels in extract treated cells were measured by RT-qPCR comparing to medium treatment. RNA isolation took place using RNeasy® Mini Kit, Qiagen. Total RNA concentrations were measured using μCuvetteG 1.0 and BioPhotometer, Eppendorf by measuring the absorption at 260 nm. Purity control values, like […]/280 and E 260/230 were calculated simultaneously. Reverse transcription was done using high capacity RNA-to-cDNA Kit, Applied Biosystems, according to the supplier instructions. Samples were treated in the PCR Thermocycler, Biometra. For the fast real-time PCR, cDNA was diluted with RNase-free water and TaqManTM Fast Universal PCR Master Mix, Applied biosystems. Quantitaive Real-Time PCR was done using StepOne Plus Fast Real Time PCR Instrument, Applied biosystems. Analysis was done with StepOne-Software and 2-ΔCT Method (normalized to endogenous control HTRP1 expression).

[4] = system: CLDN1 [Claudin 1]; experiment: Gene expression by RT-qPCR in nHEK keratinocytes; format: cell-based, human; details: 0.002%
Experimental: (§1) Neonatale humane epidermal keratinocytes (nHEK) were cultivated in EpiLife medium (Gibco) including HKGS-Kit (Gibco) at 5% CO2 at 37° C. according to the supplier instructions.
(§2) […] Genomic target expression levels in extract treated cells were measured by RT-qPCR comparing to medium treatment.
(§3) RNA isolation took place using RNeasy® Mini Kit, Qiagen. Total RNA concentrations were measured using μCuvetteG 1.0 and BioPhotometer, Eppendorf by measuring the absorption at 260 nm. Purity control values, like E260/280 and E 260/230 were calculated simultaneously. Reverse transcription was done using high capacity RNA-to-cDNA Kit, Applied Biosystems, according to the supplier instructions. Samples were treated in the PCR Thermocycler, Biometra.
(§4) For the fast real-time PCR, cDNA was diluted with RNase-free water and TaqMan™ Fast Universal PCR Master Mix, Applied biosystems. Quantitaive Real-Time PCR was done using StepOne Plus Fast Real Time PCR Instrument, Applied biosystems. Analysis was done with StepOne-Software and 2-ΔCT Method (normalized to endogenous control HTRP1 expression).
(§5) For upregulations RQ values ≥2.0 and for downregulations RQ values <0.5 are considered to be relevant.

[5] = system: OCLN [Occludin]; experiment: Gene expression by RT-qPCR in nHEK keratinocytes; format: cell-based, human; details: 0.002%
Experimental: as §1, §2, §3, §4, §5

[6] = system: CGN [Cingulin]; experiment: Gene expression by RT-qPCR in nHEK keratinocytes; format: cell-based, human; details: 0.002%
Experimental: as §1, §2, §3, §4, §5

[7] = Water solubility (statement); format: physicochemical

Compound | Reduction of lipids at day 6 versus untreated ([1]; Example 6, 0.05 ppm) | Reduction of lipids at day 6 versus untreated ([1]; Example 6, 0.5 ppm) | Effect on total lipid / sebum content of sebaceous glands, in words ([1]; ex vivo human sebaceous glands) | Viability ([2]; Example 6, 0.05 ppm) | Viability ([2]; Example 6, 0.5 ppm) | Reduction of lipids at day 6 versus untreated ([1]; Example 7, 0.05 ppm) | Reduction of lipids at day 6 versus untreated ([1]; Example 7, 0.5 ppm) | Viability ([2]; Example 7, 0.05 ppm) | Viability ([2]; Example 7, 0.5 ppm) | further results
COc1cc(CNC(=O)CCCC/C=C/C(C)C)ccc1O [Capsaicin, reference compound] |  |  |  |  |  |  |  |  |  | Reduction of lipids at day 6 versus untreated; Total lipid reduction ([1]; 5 μM (1.5 ppm)): −25%; Reduction of lipids at day 6 versus untreated ([1]; Example 6, 5 μM (1.5 ppm)): −21%; Reduction of lipids at day 6 versus untreated ([1]; Example 7, 5 μM (1.5 ppm)): −20%; Reduction of lipids at day 6 versus untreated; Lipid reduction ([1]; 5 μM (1.5 ppm)): 13* %; Viability ([2]; Example 3, Donor 1, 5 μM (1.5 ppm)): 92%; Viability ([2]; Example 3, Donor 2, 5 μM (1.5 ppm)): 99%; Viability ([2]; Example 3, Donor 3, 5 μM (1.5 ppm)): 85%; Viability ([2]; Example 4, 5 μM (1.5 ppm)): 82%; Viability ([2]; Example 6, 5 μM (1.5 ppm)): 89%; Viability ([2]; Example 7, 5 μM (1.5 ppm)): 91%; Viability ([2]; Example 8, 5 μM (1.5 ppm)): 95%
OC[C@@H](O)[C@@H](O)CO [erythritol, meso-Erythritol] | −26% | −36% | significantly reduces the lipid content | 82% | 77% |  |  |  |  | 
O[C@H]1[C@H](O)[C@@H](O)[C@H](O)[C@@H](O)[C@H]1O [inositol, myo-Inosiitol] |  |  | significantly reduce the lipid content |  |  | −32% | −10% | 91% | 97% | 
OC[C@@H](O)[C@@H](O[C@@H]1O[C@H](CO)[C@H](O)[C@H](O)[C@H]1O)[C@H](O)[C@@H](O)CO [lactitol, Lactitol] |  |  | significantly reduce the lipid content |  |  | −22% | −22% | 99% | 100% | 
OC[C@@H](O)[C@@H](O[C@H]1O[C@H](CO)[C@@H](O)[C@H](O)[C@H]1O)[C@H](O)[C@@H](O)CO [maltitol, Maltitol] |  |  | significantly reduce the lipid content |  |  | −44% | −39% | 79% | 80% | 
OC[C@@H](O)[C@@H](O)[C@H](O)[C@H](O)CO [mannitol, Mannitol] |  |  | significantly reduces the lipid content; also recorded: significantly reduced the sebum content |  |  |  |  |  |  | claudin 7 gene regulation, in words [3]: upregulate; RQ value ([3]; 0.002%): 2.0; RQ value [4]: 0.5; RQ value [5]: 1.0; RQ value [6]: 1.0; Reduction of lipids at day 6 versus untreated; Total lipid reduction ([1]; 0.03 ppm): −17%; Sebum/lipid reducing efficacy compared with positive control 5 μM capsaicin, in words ([1]; ex vivo human sebaceous glands): less effectively than 5 μM capsaicin; Viability ([2]; Example 4, 0.03 ppm): 81%
NC(=O)c1cccnc1 [niacinamide, Niacinamide, reference compound] |  |  | did not show a relevant lipid reducing activity |  |  |  |  |  |  | water solubility, in words [7]: readily water soluble; Reduction of lipids at day 6 versus untreated; Lipid reduction ([1]; 0.5 ppm): 2%; Viability ([2]; Example 8, 0.5 ppm): 100%
OC[C@@H](O)[C@@H](O)[C@H](O)[C@@H](O)CO [sorbitol, D-Sorbitol] | −16% | −40% | significantly reduces the lipid content | 80% | 78% |  |  |  |  | Reduction of lipids at day 6 versus untreated; Lipid reduction ([1]; 0.5 ppm): 11* %; Effect on total lipid / sebum content of sebaceous glands, in words ([1]; ex vivo human sebaceous glands, listed as Sorbitol): exhibited efficacy in the expected range when compared to capsaicin; Viability ([2]; Example 8, 0.5 ppm): 95%
OC[C@@H](O)[C@H](O)CO [threitol, D-Threitol] |  |  | significantly reduce the lipid content |  |  | −31% | −47% | 84% | 82% | 
OC[C@@H](O)[C@H](O)[C@@H](O)CO [xylitol, Xylitol] | −23% | −46% | significantly reduces the lipid content | 86% | 80% |  |  |  |  | 
